Values quoted from earlier work, collected in patent US11413265B2, “Formulations and compositions of Cabazitaxel” (Zhuhai Beihai Biotech Co., Ltd., priority 2018, dated 2022).

Tests used:
human serum proteins = details: in vitro
human serum albumin = human serum albumin (Homo sapiens, UniProt P02768); details: in vitro
Chain of human serum albumin (P02768 25-609): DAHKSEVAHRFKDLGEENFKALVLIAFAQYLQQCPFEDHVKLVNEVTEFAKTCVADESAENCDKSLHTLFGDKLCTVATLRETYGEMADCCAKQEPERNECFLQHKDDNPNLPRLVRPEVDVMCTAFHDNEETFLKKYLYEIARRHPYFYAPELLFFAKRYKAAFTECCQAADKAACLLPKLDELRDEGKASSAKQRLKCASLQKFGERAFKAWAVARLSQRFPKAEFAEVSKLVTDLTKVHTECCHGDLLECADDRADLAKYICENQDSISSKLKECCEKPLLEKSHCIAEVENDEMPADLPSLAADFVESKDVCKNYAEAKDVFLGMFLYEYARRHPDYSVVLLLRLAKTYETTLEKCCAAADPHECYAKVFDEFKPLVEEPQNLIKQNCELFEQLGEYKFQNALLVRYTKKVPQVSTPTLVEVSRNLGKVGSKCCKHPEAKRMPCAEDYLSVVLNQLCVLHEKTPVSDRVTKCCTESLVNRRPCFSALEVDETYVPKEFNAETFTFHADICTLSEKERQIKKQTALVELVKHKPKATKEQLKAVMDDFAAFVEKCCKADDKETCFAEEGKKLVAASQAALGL

concentration up to which binding to human serum proteins was not saturable (human serum proteins): > 50,000 ng/mL
solubility in alcohol (alcohol): soluble
solubility in water (water): practically insoluble
bound to human serum albumin (human serum albumin): 82%
SMILES: CO[C@H]1C(=O)[C@]2(C)[C@@H](OC)C[C@H]3OC[C@@]3(OC(C)=O)[C@H]2[C@H](OC(=O)c2ccccc2)[C@]2(O)C[C@H](OC(=O)[C@H](O)[C@@H](NC(=O)OC(C)(C)C)c3ccccc3)C(C)=C1C2(C)C [Cabazitaxel, cabazitaxel]
